Measured values reported in patent US7211269B2, “Cosmetic or dermatological use of peptides for promoting adhesion between skin cells” (Societe d' Extraction de Principes Actifs S.A., priority 2001, dated 2007).
Where no end group is shown, it is not given here.

Columns and labels:
[1] = system: fibroblasts and keratinocytes in culture; assay: Peptide applied to fibroblasts and keratinocytes in culture, HPLC analysis of the culture medium; format: cell-based, human
Description: (§1) Human fibroblasts and keratinocytes were cultivated during 24 hours at 37° C. and 5% of CO2. For this period, the cells will release many degradation enzymes in the culture medium. Thereafter, the culture medium is removed to be put in the presence of the peptide.
A test is carried out by applying the peptide to the fibroblasts and to the keratinocytes in culture.
This assumption is then consolidated by the tests of effectiveness exposed in the […]

[2] = Stability of the peptide by HPLC at various temperatures; format: physicochemical; settings: 10^-4 M
Description: (§2) The Peptide (Gly-Pro-Gln)2-NH2 (SEQ ID NO: 2) was analyzed with a concentration of 10^-4 M by HPLC on a column of the C18 type, and with a linear gradient water/TFA 0.1%—acetonitril/TFA 0.1%.

[3] = Stability of the peptide in culture medium removed from human fibroblasts and keratinocytes (released degradation enzymes), HPLC; format: in vitro ADME; settings: medium from human fibroblasts and keratinocytes cultivated 24 hours at 37° C.; after 24 hours with peptide
Description: as §2, §1

[4] = system: keratinocytes; assay: Adhesion of keratinocytes to pre-treated 96 wells micro-plates (MTT, OD reading); format: cell-based
Description: The study is carried out in 96 wells micro-plates on keratinocytes cultured in an incubator at 37° C. and 5% of CO2. The wells of these plates are pre-treated, for 12 hours, in different ways; four conditions have been realized: • Condition A: negative control, not containing peptide; • Condition B: incubated with various peptides, made up from 3 to 25 amino acids, with a concentration of 35 ppm; • Condition C: incubated with collagen of the type I with a concentration of 60 ppm; • Condition D: incubated with the peptide of sequence (Gly-Pro-Gln)2-NH2 (SEQ ID NO: 2) to a concentration of 5 ppm.
After 3 hours of contact with the keratinocytes, the wells are completely filled with medium, hermetically closed, turned over and agitated on a three-dimensional agitator during 20 minutes. Then the plates are emptied and the remaining medium is aspired. Then, 100 μl of MTT with 1 mg/ml are added by wells and are left for 3 hours at 37° C. and 5% CO2. The solution is finally withdrawn, then 100 μl of DMSO is added. A reading of the OD is made at 560 nm against 630 nm.
The OD is proportional to the quantity of viable cells, i.e. which adhered to the micro-plates.

- peptide concentration in the culture medium [1]: decreases quickly
- decomposition of peptide (HPLC) ([2]; after 24 hours at 25° C., 37° C. and 60° C.): no decomposition
- peptide degradation (HPLC) ([2]; after 8 days at 25° C.): no peptide degradation
- degradation of the peptide in cell-conditioned culture medium [3]: almost no degradation
Substance: GPQGPQ-NH2 [(Gly-Pro-Gln)2-NH2]
- cell adhesion (in words) ([4]; 5 ppm, after 3 hours of contact with the keratinocytes, compared with collagen of the type I at 60 ppm): good cell adhesion, similar to that of the collagen of the type I
- O.D. (proportional to quantity of viable adhered cells) ([4]; Condition D: wells pre-treated 12 hours with 5 ppm, 3 hours of contact with keratinocytes, OD 560 nm against 630 nm): 0.620
